Data from US20210349099A1, “CANCER BIOMARKERS AND METHODS OF USE THEREOF” (X4 Pharmaceuticals, Inc., priority 2017, published 2021).

Assays:
[1] = tested on: metastatic melanoma human tumor sample; experiment: Single-marker IHC of melanoma patient tumor samples (HALO); assay type: in vivo
Description: Single-marker IHC (CD8 and granzyme B) and multiplex IHC staining were analyzed using HALO™ spatial analysis tools, and the entire tumor area of each specimen was scored. (See Tunstall, “Quantifying Immune Cell Distribution in the Tumor Microenvironment Using HALO™ Spatial Analysis Tools,” Application Note, July […], (Indica Labs), accessed Nov. 1, 2017, on https://thepathologist.com/fileadmin/issues/App_Notes/0016-010-halo-app-note.pdf). See also Sherry et al., “Utilizing multiplex chromogenic IHC and digital image analysis to evaluate immune cell content and spatial distribution within NSCLC tumor tissue” Cancer Research (2017) 77(13) Supp: Abstract 2937. CD8 was measured using a mouse monoclonal antibody (DAKO catalog #M7103, lot #20029542). A Leica Bond RX Autostainer was used following standard protocols. For granzyme B, a mouse monoclonal antibody was used (DAKO #M7235). A Leica Bond RX Autostainer was used following standard protocols.
Single-marker IHC was also used to measure CD3, FoxP3, and Ki67. For CD3, a rabbit polyclonal antibody was used (DAKO catalog #A0452, lot #20020069). A Leica Bond RX Autostainer was used following standard protocols. For FoxP3, a mouse monoclonal antibody was used (Abcam catalog #ab20034, lot #GR251424-1). A Leica Bond RX Autostainer was used following standard protocols. […]

melanoma lesions = experiment: CD8/Ki67/melanoma staining with nearest neighbor spatial analysis of biopsies; assay type: in vivo, human
Description: Tumor samples obtained from melanoma patients were formalin-fixed and paraffin-embedded (FFPE) according to known procedures. FFPE tissue sections were baked for 1 hour at 60° C. The slides were dewaxed and stained on a Leica BOND Rx stainer (Leica, Buffalo Grove, Ill.) using Leica Bond reagents for dewaxing (Dewax Solution), antigen retrieval and antibody stripping (Epitope Retrieval Solution 2), and rinsing after each step (Bond Wash Solution). A high stringency wash was performed after the secondary and tertiary applications using high-salt TBST solution (0.05 M Tris, 0.3M NaCl, and 0.1% Tween-20, pH 7.2-7.6).
Multiplex IHC staining was analyzed using HALO™ spatial analysis tools, and the entire tumor area of each specimen was scored. (See Tunstall, “Quantifying Immune Cell Distribution in the Tumor Microenvironment Using HALO™ Spatial Analysis Tools,” Application Note, July […], (Indica Labs), accessed Nov. 1, 2017, on https://thepathologist.com/fileadmin/issues/App_Notes/0016-010-halo-app-note.pdf). See also Sherry et al., Cancer Research 77(13) Supp: Abstract 2937 (2017).
Slides were sequentially stained with antibody panels after rounds of heat-induced epitope retrieval and detected by antibody-binding HRP-containing polymers in conjunction with fluorescent tyramide substrate (Opal, Perkin-Elmer). DAPI was used as a nuclear counterstain. Fluorochromes with spectral overlap were imaged using spectral deconvolution and autofluorescence-subtraction (Vectra 3.0, Perkin-Elmer). Whole-slide scans were imaged using the Aperio-FL System (Leica Biosystems) and transferred into Halo for quantitative digital image analysis. After the cells were visualized based on nuclear recognition (DAPI stain), the software measured fluorescence intensity of the estimated cytoplasmic areas of each cell. A mean intensity threshold above background was used to determine positivity for each fluorochrome within the cytoplasm, thereby, defining cells as either positive or negative for each marker. The positive cell data was then used to define colocalized populations and to perform nearest neighbor spatial analysis.
Staining for CD4, CD8, PD-1, PD-L1, CD163/CD68 (macrophage), FoxP3, Ki-67, and melanoma cells was accomplished using the antibodies listed in TABLE 3 and 4. OPAL Polymer HRP Mouse plus Rabbit (Perkin-Elmer, Hopkington, Mass.) was used for all secondary applications. […]
Representative distance measurements between CD8^+ T cells and their nearest melanoma cell neighbors are shown in FIG. 13 (Day 1), FIG. 14 (Week 4), and FIG. 15 (End of treatment). Whole slide scans were performed using a fluorescence slide scanner (Aperio-FL, 20× objective). […]

melanoma biopsy samples = experiment: VISTA panel staining of melanoma biopsies (CD163, CD206, VISTA, COX-2, CD3, B7H3); assay type: in vivo, human
Excerpt: Biopsy samples were obtained at baseline (top row) and at the end of […]-001 monotherapy (bottom row). […] The right column contains higher magnification views of the boxed regions in the center panel.

[2] = tested on: B16-OVA tumor microenvironment; experiment: Flow cytometry of immune cell populations in B16-OVA tumor tissue; assay type: in vivo, C57BL/6 mice
Description: Single cell suspensions were prepared from tumor tissues by treating with collagenase and analyzing for various immune cell populations using flow cytometry. Cell surface markers included CD3, CD8, Perforin, CD15CD11b (MDSC), and FoxP3 (Treg). […] The enhancement was even greater for combination therapy with anti-PD-1.

[3] = Phase 1 and 2a trials; cited from earlier work
[4] = end of X4P-001 monotherapy vs baseline

NCCCCN(Cc1nc2ccccc2[nH]1)[C@H]1CCCc2cccnc21 [X4P-001]
CD8 expression ([1]; patient #5, post-dosing vs pre-dosing): visibly increased | CD8+ T cells density in tumor microenvironment ([1]; patient #5, post-dosing, pre-dosing 1045): 1370 per square millimeter | number of unique neighbors (melanoma lesions; after 4 weeks of monotherapy, Day 1 3,826): 5,239 | average distance between CD8+ T cells and the nearest tumor cell (melanoma lesions; after 4 weeks of monotherapy, Day 1 baseline 95): 43 microns | CD8+ T cell density (melanoma lesions; patient 5, entire tissue sample, after monotherapy): increased | proliferating CD8+ T cell (Ki67+) density (melanoma lesions; patient 5, entire tissue sample, after monotherapy, stronger impact): increased | COX-2/mm^2 (melanoma biopsy samples; Week 4, ROI Non-Tumor, Day 1 2.07): 1.22 /mm^2 | CD206/mm^2 (melanoma biopsy samples; Week 4, ROI Non-Tumor, Day 1 252.20): 199.30 /mm^2 | CD3/mm^2 (melanoma biopsy samples; Week 4, ROI Non-Tumor, Day 1 400.31): 494.97 /mm^2 | VISTA/mm^2 (melanoma biopsy samples; Week 4, ROI Non-Tumor, Day 1 410.11): 144.72 /mm^2 | CD163/mm^2 (melanoma biopsy samples; Week 4, ROI Non-Tumor, Day 1 514.86): 467.25 /mm^2 | B7H3/mm^2 (melanoma biopsy samples; Week 4, ROI Non-Tumor, Day 1 615.63): 980.49 /mm^2 | Cells/mm^2 (melanoma biopsy samples; Week 4, ROI Non-Tumor, Day 1 2057.63): 2217.73 /mm^2 | COX-2/mm^2 (melanoma biopsy samples; Week 4, ROI Tumor, Day 1 3.40): 2.98 /mm^2 | CD3/mm^2 (melanoma biopsy samples; Week 4, ROI Tumor, Day 1 239.91): 1050.68 /mm^2 | CD206/mm^2 (melanoma biopsy samples; Week 4, ROI Tumor, Day 1 264.79): 161.25 /mm^2 | CD163/mm^2 (melanoma biopsy samples; Week 4, ROI Tumor, Day 1 426.51): 661.21 /mm^2 | VISTA/mm^2 (melanoma biopsy samples; Week 4, ROI Tumor, Day 1 2640.08): 852.86 /mm^2 | B7H3/mm^2 (melanoma biopsy samples; Week 4, ROI Tumor, Day 1 4826.36): 3952.27 /mm^2 | Cells/mm^2 (melanoma biopsy samples; Week 4, ROI Tumor, Day 1 5758.23): 5297.64 /mm^2 | COX-2/mm^2 (melanoma biopsy samples; Week 4, ROI Whole Tissue, Day 1 2.87): 1.97 /mm^2 | CD206/mm^2 (melanoma biopsy samples; Week 4, ROI Whole Tissue, Day 1 259.38): 182.26 /mm^2 | CD3/mm^2 (melanoma biopsy samples; Week 4, ROI Whole Tissue, Day 1 308.53): 738.82 /mm^2 | CD163/mm^2 (melanoma biopsy samples; Week 4, ROI Whole Tissue, Day 1 464.86): 552.27 /mm^2 | VISTA/mm^2 (melanoma biopsy samples; Week 4, ROI Whole Tissue, Day 1 1673.17): 457.53 /mm^2 | B7H3/mm^2 (melanoma biopsy samples; Week 4, ROI Whole Tissue, Day 1 2998.14): 2288.84 /mm^2 | Cells/mm^2 (melanoma biopsy samples; Week 4, ROI Whole Tissue, Day 1 4149.31): 3572.93 /mm^2 | expression of VISTA (melanoma biopsy samples; [4]): decreased expression | numbers of CD3+ cells within tumor borders (melanoma biopsy samples; [4]): increased numbers | suppressor cell counts (Tregs and MDSC) [2]: substantially decreased | pharmacodynamic activity: circulating white blood cells (WBCs) [3]: dose- and concentration-related changes | volume of distribution (VL) [3]: high
